These results are taken from PubChem BioAssay AID256 (DTP/NCI, 2004).

Values joined by “and” are separate entries in the source; they are usually repeats but may differ in a detail not shown here. Identical values can stand only once. Toxic doses and inconclusive results are not listed.

This assay concerns CD2F1 mice, L1210 leukemia ip, survival T/C. Kind of assay: NCI In Vivo Anticancer Drug Screen. Data for tumor model L1210 Leukemia (intraperitoneal) in CD2F1 (CDF1) mice. Particulars: higher = longer survival. In a few lines:
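Vehicle-treated tumor-bearing mice served as controls (C) for compound-treated mice (T). Reported figure is T divided by C.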

The mark [1] stands for this setting: endpoint: mean survival time, dose: 100.0 mg/kg/injection, schedule: Q04DX003 (ip), vehicle: saline with Tween-80.
Setting [2] is: endpoint: mean survival time, dose: 200.0 mg/kg/injection, schedule: Q04DX003 (ip), vehicle: saline with Tween-80.
Setting [3] is: endpoint: mean survival time, dose: 400.0 mg/kg/injection, schedule: Q04DX003 (ip), vehicle: saline with Tween-80.
Setting [4] is: endpoint: mean survival time, dose: 100.0 mg/kg/injection, schedule: Q04DX002 (ip), vehicle: saline with Tween-80.
Setting [5] is: endpoint: mean survival time, dose: 200.0 mg/kg/injection, schedule: Q04DX002 (ip), vehicle: saline with Tween-80.
The mark [6] stands for this setting: endpoint: mean survival time, dose: 400.0 mg/kg/injection, schedule: Q04DX002 (ip), vehicle: saline with Tween-80.
[7] abbreviates: endpoint: mean survival time, dose: 25.0 mg/kg/injection, schedule: Q04DX002 (ip), vehicle: saline with Tween-80.
The mark [8] stands for this setting: endpoint: mean survival time, dose: 50.0 mg/kg/injection, schedule: Q04DX002 (ip), vehicle: saline with Tween-80.
Setting [9] is: endpoint: mean survival time, dose: 25.0 mg/kg/injection, schedule: Q01DX009 (ip), vehicle: saline.
Where [10] appears, read: endpoint: mean survival time, dose: 50.0 mg/kg/injection, schedule: Q01DX009 (ip), vehicle: saline.

As for `CC(C)=CCNc1ncnc2c1ncn2C1OC(CO)C(O)C1O` (configuration not stated), the T/C was 95 % of control (endpoint: mean survival time, dose: 100.0 mg/kg/injection, schedule: Q01DX009 (ip), vehicle: saline with Tween-80); 91 % of control under setting [1]; 101 % of control under setting [2]; 100 % of control under setting [3].
Consider `Nc1nc2c(ncn2-c2ccc(OCCNC(=O)Nc3cccc(S(=O)(=O)F)c3)cc2)c(=O)[nH]1`, for which the T/C reads like this: under setting [4], 104 % of control; under setting [5], 96 % of control; under setting [6], 90 % of control.
Consider `Clc1ccc(CC[PH+]2CC=CC2)cc1.Clc1ccc(CC[PH+]2CC=CC2)cc1.[Cl][Ni][Cl]`, for which the T/C is, setting by setting: (endpoint: mean survival time, dose: 12.5 mg/kg/injection, schedule: Q01DX009 (ip), vehicle: DMSO) 101 % of control; (endpoint: mean survival time, dose: 25.0 mg/kg/injection, schedule: Q01DX009 (ip), vehicle: DMSO) 101 % of control; under setting [7], 91 % of control; under setting [8], 95 % of control.
On to `O=S1(=O)CC23CC=CCC2(CC=CC3)C1` (configuration not stated), for which the T/C by setting is: (endpoint: mean survival time, dose: 100.0 mg/kg/injection, schedule: Q04DX003 (ip), vehicle: other) 100 % of control; (endpoint: mean survival time, dose: 200.0 mg/kg/injection, schedule: Q04DX003 (ip), vehicle: other) 102 % of control.
As for `CC(=O)NCCSSCCNC(C)=O`, the T/C was 91 % of control under setting [8], 95 % of control under setting [4], 88 % of control under setting [5] and 109 % of control under setting [6].
`C[C@H]1CN1C1=CC(=O)C(N2C[C@@H]2C)=CC1=O`: the T/C was 183 % of control (endpoint: mean survival time, dose: 3.13 mg/kg/injection, schedule: Q01DX009 (ip), vehicle: other); 168 % of control (endpoint: mean survival time, dose: 4.69 mg/kg/injection, schedule: Q01DX009 (ip), vehicle: other); 123 % of control (endpoint: mean survival time, dose: 6.25 mg/kg/injection, schedule: Q01DX009 (ip), vehicle: other); 116 % of control (endpoint: mean survival time, dose: 12.6 mg/kg/injection, schedule: Q01DX001 (ip), vehicle: other); 98 % of control (endpoint: mean survival time, dose: 18.7 mg/kg/injection, schedule: Q04DX003 (ip), vehicle: saline with Tween-80).
With `CCCCCCCCCCOc1ccc(OCCCCCCCCC)cc1`, the T/C (endpoint: mean survival time, dose: 100.0 mg/kg/injection, schedule: Q01DX001 (ip), vehicle: saline with Tween-80) is 86 % of control and the T/C (endpoint: mean survival time, dose: 200.0 mg/kg/injection, schedule: Q01DX001 (ip), vehicle: saline with Tween-80) was 90 % of control.
On to `Cc1ccc(SCc2c(COc3ccc(Cl)cc3)sc3ccc(Cl)cc23)cc1`, for which the T/C under setting [1] was 92 % of control, the T/C under setting [2] is 92 % of control and the T/C under setting [3] is 94 % of control.
As for `COC(=O)[C@@H]1c2cc3c(c(O)c2[C@@H](OC2OC(C)C(OC)C(C)(OC)C2OC)C[C@]1(C)O)C(=O)c1c(O)cc2c(c1C3=O)O[C@H]1O[C@]2(C)[C@H](O)[C@@H](N(C)C)[C@@H]1O` (some centres not stated), the T/C by setting is: (endpoint: mean survival time, dose: 0.25 mg/kg/injection, schedule: Q01DX009 (ip), vehicle: other) 120 % of control and 112 % of control; (endpoint: mean survival time, dose: 0.5 mg/kg/injection, schedule: Q01DX009 (ip), vehicle: other) 116 % of control and 108 % of control; (endpoint: mean survival time, dose: 1.0 mg/kg/injection, schedule: Q01DX009 (ip), vehicle: other) 93 % of control and 110 % of control.
As to `C=C1CC(=O)N(c2ccc(OC)cc2)C1=O`, the T/C (endpoint: mean survival time, dose: 25.0 mg/kg/injection, schedule: Q04DX003 (ip), vehicle: saline with Tween-80) is 100 % of control; the T/C (endpoint: mean survival time, dose: 50.0 mg/kg/injection, schedule: Q04DX003 (ip), vehicle: saline with Tween-80) was 107 % of control; the T/C under setting [1] is 104 % of control.
For `O=C(O)c1ccc(P(=O)(O)O)cc1[N+](=O)[O-]`, the T/C was 91 % of control under setting [9] and 86 % of control under setting [10].
On to `NC(=O)C[n+]1cccc(C(=O)Nc2ccccc2)c1`, for which the T/C is 95 % of control (endpoint: mean survival time, dose: 100.0 mg/kg/injection, schedule: Q01DX009 (ip), vehicle: saline sonified) and 89 % of control (endpoint: mean survival time, dose: 200.0 mg/kg/injection, schedule: Q01DX009 (ip), vehicle: saline sonified).
For `O=C1NC(=O)C2C3CCC(O3)C12` (configuration not stated), the T/C by setting is: under setting [9], 102 % of control; under setting [7], 103 % of control and 97 % of control; under setting [10], 105 % of control; under setting [8], 98 % of control and 106 % of control; (endpoint: mean survival time, dose: 100.0 mg/kg/injection, schedule: Q01DX009 (ip), vehicle: saline) 102 % of control; under setting [4], 103 % of control and 101 % of control. In addition, the T/C under setting [5] is 87 % of control.
For the molecule `c1ccc(C(c2ccccc2)[P+](c2ccccc2)(c2ccccc2)c2ccccc2)cc1`, the T/C was 92 % of control (endpoint: mean survival time, dose: 375.0 micrograms/kg/injection, schedule: Q01DX001 (ip), vehicle: gum acacia); 106 % of control (endpoint: mean survival time, dose: 375.0 micrograms/kg/injection, schedule: Q01DX009 (ip), vehicle: gum acacia); 95 % of control (endpoint: mean survival time, dose: 375.0 micrograms/kg/injection, schedule: Q04DX003 (ip), vehicle: gum acacia); 103 % of control (endpoint: mean survival time, dose: 750.0 micrograms/kg/injection, schedule: Q01DX001 (ip), vehicle: gum acacia); 101 % of control (endpoint: mean survival time, dose: 750.0 micrograms/kg/injection, schedule: Q01DX009 (ip), vehicle: gum acacia); 101 % of control (endpoint: mean survival time, dose: 750.0 micrograms/kg/injection, schedule: Q04DX003 (ip), vehicle: gum acacia). The T/C runs as follows: (endpoint: mean survival time, dose: 1500.0 micrograms/kg/injection, schedule: Q01DX001 (ip), vehicle: gum acacia) 101 % of control; (endpoint: mean survival time, dose: 1500.0 micrograms/kg/injection, schedule: Q01DX009 (ip), vehicle: gum acacia) 108 % of control; (endpoint: mean survival time, dose: 1500.0 micrograms/kg/injection, schedule: Q04DX003 (ip), vehicle: gum acacia) 106 % of control; (endpoint: mean survival time, dose: 3000.0 micrograms/kg/injection, schedule: Q01DX001 (ip), vehicle: gum acacia) 98 % of control; (endpoint: mean survival time, dose: 3000.0 micrograms/kg/injection, schedule: Q01DX009 (ip), vehicle: gum acacia) 112 % of control; (endpoint: mean survival time, dose: 3000.0 micrograms/kg/injection, schedule: Q04DX003 (ip), vehicle: gum acacia) 108 % of control. The T/C reads like this: (endpoint: mean survival time, dose: 6000.0 micrograms/kg/injection, schedule: Q01DX001 (ip), vehicle: gum acacia) 112 % of control; (endpoint: mean survival time, dose: 6000.0 micrograms/kg/injection, schedule: Q01DX009 (ip), vehicle: gum acacia) 92 % of control; (endpoint: mean survival time, dose: 6000.0 micrograms/kg/injection, schedule: Q04DX003 (ip), vehicle: gum acacia) 114 % of control.
`CCCCCCCCCCCCCC[n+]1ccccc1`: the T/C was 93 % of control (endpoint: mean survival time, dose: 0.07 mg/kg/injection, schedule: Q01DX009 (ip), vehicle: saline); 101 % of control (endpoint: mean survival time, dose: 0.13 mg/kg/injection, schedule: Q01DX009 (ip), vehicle: saline); 103 % of control (endpoint: mean survival time, dose: 0.25 mg/kg/injection, schedule: Q01DX009 (ip), vehicle: saline); 102 % of control (endpoint: mean survival time, dose: 0.25 mg/kg/injection, schedule: Q04DX003 (ip), vehicle: saline sonified).
For the molecule `O=C1OC(=O)C2C3C=CC(C12)C1C2C(=O)OC(=O)C2C31` (configuration not stated), the T/C runs as follows: under setting [1], 91 % of control and 101 % of control; under setting [2], 94 % of control and 97 % of control; under setting [3], 123 % of control and 94 % of control; (endpoint: mean survival time, dose: 600.0 mg/kg/injection, schedule: Q04DX003 (ip), vehicle: saline with Tween-80) 110 % of control.
In the case of `NC(=S)c1ncn(C2OC(COC=O)C(OC=O)C2OC=O)c1NC=O` (configuration not stated), the T/C reads like this: (endpoint: mean survival time, dose: 50.0 mg/kg/injection, schedule: Q04DX002 (ip), vehicle: Klucel (hydroxypropylcellulose) (HPC)) 121 % of control; (endpoint: mean survival time, dose: 100.0 mg/kg/injection, schedule: Q01DX009 (ip), vehicle: Klucel (hydroxypropylcellulose) (HPC)) 151 % of control; under setting [4], 166 % of control; (endpoint: mean survival time, dose: 200.0 mg/kg/injection, schedule: Q01DX009 (ip), vehicle: Klucel (hydroxypropylcellulose) (HPC)) 117 % of control; under setting [5], 158 % of control; (endpoint: mean survival time, dose: 400.0 mg/kg/injection, schedule: Q04DX002 (ip), vehicle: Klucel (hydroxypropylcellulose) (HPC)) 159 % of control. Also, the T/C runs as follows: under setting [6], 154 % of control; (endpoint: median survival time, dose: 12.5 mg/kg/injection, schedule: Q01DX009 (ip), vehicle: Klucel (hydroxypropylcellulose) (HPC)) 111 % of control; (endpoint: median survival time, dose: 25.0 mg/kg/injection, schedule: Q01DX009 (ip), vehicle: Klucel (hydroxypropylcellulose) (HPC)) 122 % of control; (endpoint: median survival time, dose: 200.0 mg/kg/injection, schedule: Q01DX009 (ip), vehicle: Klucel (hydroxypropylcellulose) (HPC)) 154 % of control and 166 % of control.
For the molecule `COc1ccc([N+](=O)[O-])cc1NC(=O)Nc1ccccc1C`, the T/C runs as follows: under setting [4], 92 % of control; under setting [5], 88 % of control; under setting [6], 95 % of control.
On to `Nc1ccc(OCC(O)CN2CCN(c3ccccc3)CC2)cc1` (configuration not stated), for which the T/C was 94 % of control under setting [4] and 107 % of control under setting [5].
